Test results as given in patent publication US8481515B2, “Derivatives of cholest-4-en-3-one oxime, pharmaceutical compositions containing them and preparation method” (Trophos, priority 2005, dated 2013).

Columns and labels:
[1] = tested on: cortical neurons; assay: protection of cortical neurons against camptothecin-induced death (calcein-AM cell count); assay type: cell-based, Sprague-Dawley rat; conditions: 10 μM camptothecin, 16 hours, mean ± standard deviation, n = 8 wells
Experimental: Cortical neurons were prepared from Sprague-Dawley rat embryos in the E18 pregnancy stage and cultivated in a 96-well plate at a density of 333 cells/mm^2 in Neurobasal medium (Invitrogen) supplemented with 2% B27 (Invitrogen) and 2% sodium pyruvate. With these culture conditions, it is possible to obtain very good cortical neuron purity in the cultures. After 6 days in culture, the death of cortical neurons was induced by adding 10 μM camptothecin dissolved in dimethyl sulfoxide (DMSO). At the same moment, the neurons were treated with different concentrations of the compound to be tested. The final DMSO concentration after treatment is 1%. After 16 hours of incubation with camptothecin, the survival of the neurons was evaluated by counting the surviving cells. To do this, the cells were incubated for 20 minutes in the presence of a vital dye, calcein-AM (Invitrogen) at 2 μg/ml. After labelling, each culture well was analyzed by means of an imaging station (Flash Cytometer, TROPHOS, FRANCE) provided with an image analysis software package TINA 4.5 (TROPHOS, France) allowing acquisition of digital images of the whole of the well (exposure time 40 ms). The cells, defined by pixel size criteria (min=10; max=40), were then counted by means of the Tina 4.5 software package (TROPHOS)

[2] = tested on: rat motoneurons; assay: in vitro trophic deprivation model of rat motoneurons (survival, calcein fluorescence); assay type: cell-based; conditions: 3 days of culture, no trophic factors
From the text: It may be helpful to refer to Patent Application WO 0142784 of the applicant on the culture of spinal cord motoneurons.
The spinal cord of E14 rat embryos is dissected and the ventral portion is dissociated by trituration after trypsinization. The motoneurons are separated from the other spinal cells by a known method (Camu et al, 1993, Purification of spinal motoneurons from chicken and rat embryos by immunopanning. In <<Immunoselection Strategies for Neural cell culture>>), Neuroprotocols: A companion to Methods in Neurosciences 2, 191-199; Henderson et al., 1993, Neutrophins promote motor neuron survival and are present in embryonic limb bud. Nature 363 (6426):266-70). The cells are centrifuged on a density gradient. The motoneurons are enriched with the fraction of large (the less dense) cells. The cells of this fraction are incubated with an anti-p75 antibody, a surface antigen present on motoneurons. Secondary antibodies coupled with magnetic beads are added and the cell mixture is passed through a column in a magnet (Arce et al, 1999 Cardiotrophin-1 requires LIFRbeta to promote survival of mouse motoneurons purified by a novel technique. J. Neurosci Res 55(1): 119-26). Only motoneurons are retained: their purity is of the order of 90%.
The motoneurons are sown at low density in culture wells on a polyornithine-laminine substrate in a neurobasal medium (GIBCO) supplemented according to Raoul et al, 1999, Programmed cell death of embryonic motoneurons triggered through the Fas death receptor. J. Cell. Biol. 147(5):1049-62. Negative (absence of trophic factors) controls and positive controls (in the presence of 1 ng/ml BDNF (Brain-Derived Neurotrophic Factor), 1 ng/ml GDNF (Glial-Derived Neurotrophic Factor) and 10 ng/ml CNTF (Ciliary Neurotrophic Factor) as marketed by the US company PEPROTECH, Inc. and Sigma-Aldrich) are included in each series.
The compounds to be tested are added 60 minutes after sowing and the cultures are maintained at 37° C. under 5% CO2 for 3 days.
The motoneurons tend to die spontaneously in the absence of neurotrophic factors (Pettmann and Henderson, 1998, Neuronal cell death. Neuron 20(4):633-47). After 3 days, survival is evaluated by a fluorescence measurement after incubation of the cells in the presence of calcein which becomes fluorescent in living cells.
After 3 days of culture at 37° C. under 5% CO2 and in saturating humidity, up to 50% of the initially sown motoneurons survive in the medium supplemented with neurotrophic factors, whereas less than 15% of the motoneurons survive in a culture medium not added with neurotrophic factors.
The neuroprotective activity of the compounds to be tested was evaluated by their capacity of preventing the death of motoneurons when they are added to the Neurobasal medium (GIBCO) as compared with survival of the motoneurons in a medium added with neurotrophic factors.
The compounds of formula I according to the invention have shown neuroprotective activity at a concentration capable of providing a better survival rate of the motoneurons in the Neurobasal medium. This survival rate is expressed by the number of living cells after treatment with the compound to be tested as compared with survival induced by neurotrophic factors. This ratio therefore represents the survival percentage due to the tested compound as compared with the survival induced by neurotrophic factors. If the ratio is greater than 0, the effect of the compound is positive for the survival of motoneurons.

[3] = tested on: striatal neurons; assay: protection of striatal neurons against death induced by overexpression of a mutated form of huntingtin; assay type: cell-based; conditions: 7 days, living cells expressing GFP
Experimental: Primary cultures of striatal neurons are prepared and they are described in the literature (Primary striatal neuronal culture, Mao L. et al., Methods Mol. Med., 2003, 79:379-86). […] A second expression vector containing the DNA coding for the green fluorescent protein (GFP) is also electroporated and is used as a reporter gene. The DNA of the plasmid coding for the huntingtin was prepared by purifying with cesium chloride. The plasmid containing the GFP sequence was prepared on Qiagen columns. The integrity of the DNA sequences is checked by sequencing, transfection and Western blotting. The cells which survive electroporation are sown at a density of 4,000 cellules per well of 96-well plates. The culture is accomplished in neurobasal medium (GIBCO) supplemented with pyruvate and B-27 (Beckton Dickinson). The cells are maintained in culture for 7 days without changing the medium.
[…] Positive controls are made by adding BDNF at a final level of 5 ng/ml. The negative controls only receive 0.5% DMSO.
Cell death is evaluated after 7 days by counting the number of living cells expressing GFP.
The activity of the compounds to be tested was evaluated by their capacity of preventing death of striatal neurons cultivated in the neurobasal medium as compared with the survival of striatal neurons in a medium supplemented with BDNF (Brain-Derived Neurotrophic Factor).

`CC(C)CCC[C@@H](C)[C@H]1CC[C@H]2[C@@H]3CC(=O)C4=CC(=NO)CC[C@]4(C)[C@H]3CC[C@]12C` [Example 3, 3-oxyimino-cholest-4-en-6-one] was tested, and the “Cell viability (%)” value ([1]; 0.1 μM compound) was 63.3 ± 20.3%, the “Cell viability (%)” value ([1]; 0.3 μM compound) was 99.1 ± 15.7% and the “Cell viability (%)” value ([1]; 1 μM compound) was 112.2 ± 22.3%. For the same molecule, the “Ratio (survival of motoneurons with compound as compared with survival induced by neurotrophic factors)” value ([2]; concentration 3 μM) was 0.60 and the “Ratio (survival of striatal neurons as compared with survival in medium supplemented with BDNF)” value ([3]; concentration 1 μM) was 0.3.
With `CCC(C=C[C@@H](C)[C@H]1CC[C@H]2[C@@H]3CC(=O)C4=CC(=NO)CC[C@]4(C)[C@H]3CC[C@]12C)C(C)C` (stereo partly shown) [Example 7, 24-ethyl-3-oxyimino-cholest-4,22-dien-6-one] the “Ratio (survival of motoneurons with compound as compared with survival induced by neurotrophic factors)” value ([2]; concentration 1 μM) was 0.46.
In the case of `CC(C)CCC[C@@H](C)[C@H]1CC[C@H]2[C@@H]3CC(=NO)C4=CC(=NO)CC[C@]4(C)[C@H]3CC[C@]12C` [Example 9, cholest-4-en-3,6-dioxime], the “Ratio (survival of motoneurons with compound as compared with survival induced by neurotrophic factors)” value ([2]; concentration 0.6 μM) is reported as 0.25 and the “Ratio (survival of striatal neurons as compared with survival in medium supplemented with BDNF)” value ([3]; concentration 0.3 μM) is reported as 0.5.
With `CC(C)=CCC[C@@H](C)[C@H]1CC[C@H]2[C@@H]3CC(=NO)C4=CC(=NO)CC[C@]4(C)[C@H]3CC[C@]12C` [Example 10, cholest-4,24-dien-3,6-dioxime] the “Ratio (survival of motoneurons with compound as compared with survival induced by neurotrophic factors)” value ([2]; concentration 1 μM) was 0.25.
`CCC(C=C[C@@H](C)[C@H]1CC[C@H]2[C@@H]3CC(=NO)C4=CC(=NO)CC[C@]4(C)[C@H]3CC[C@]12C)C(C)C` (stereo partly shown) [Example 13, 24-ethyl-cholest-4,22-dien-3,6-dioxime] was tested, and the “Ratio (survival of motoneurons with compound as compared with survival induced by neurotrophic factors)” value ([2]; concentration 1 μM) was 0.34.
